# From patent publication US20120264755A1, “PYRIDINYL DERIVATIVES AS INHIBITORS OF ENZYME NICOTINAMIDE PHOSPHORIBOSYLTRANSFERASE” (TopoTarget, priority 2009, published 2012)
# Counter-ions that a name gives are not always drawn.
# System: A2780 cells
# Test: In vitro cell proliferation assay (WST-1 assay)
# Format: cell-based
# Details: Homo sapiens, total incubation time 72 h, WST-1 readout
# Procedure: A2780 cells were seeded in 96-well plates at 3×10^3 cells/well in 100 μL of culture medium, 8 wells were left empty for media only controls.
# After 24 h the compound titrations were performed, in a separate dilution plate, by serially diluting the compounds of general formula (I) in culture medium. A 100 μL of each dilution was added to the plated cells, this was done in triplicate, and controls (e.g. DMSO and blanks) were included. The plates were incubated for 24 h at 37° C. in a CO2 incubator. The compound titrations were repeated in a separate dilution plate after 24 h. The media plus compound from the assay plates were then aspirated. A 100 μL of media was then added to all wells, followed by 100 μL of each compound dilution. The plates were incubated for a further 48 h at 37° C. in a CO2 incubator (total incubation time 72 h). The number of viable cells was then assessed using Cell Proliferation Reagent WST-1. 10 μL of WST-1 reagent added to each well and incubated for one to four hours at 37° C. in CO2 incubator. The absorbance was measured (450 nm/690 nm).
# The activity of compounds of general formula (I) in reducing the number of viable cells was calculated as:
# % activity=[(S^c−B)/(S^o−B)]×100
# S^c denotes signal measured in the presence of test compound, S^o denotes signal detected in the absence of compound, and B denotes background signal, measured in blank wells containing medium only. Analyse data using GraphPad Prism.
row,Structure (SMILES),IC50 [nM]
1,"CCN(CCCCCCCCNC(=O)NCc1cccnc1)OCc1ccccc1 [Compound 1081, 1-(8-(benzyloxy(ethyl)amino)octyl)-3-(pyridin-3-ylmethyl)urea oxalate]",0.55
2,CCS(=O)(=O)N(CCCCCN/C(=N\C#N)Nc1ccncc1)OCC1CCCCC1 [Compound 1144],0.037
3,"O=c1c(NCCCCCCCCN(CCCN2CCOCC2)S(=O)(=O)C2CCCC2)c(Nc2ccncc2)c1=O [Compound 1016, N-(8-(3,4-dioxo-2-(pyridin-4-ylamino)cyclobut-1-enylamino)octyl)-N-(3-morpholinopropyl)cyclopentanesulfonamide]",0.44
4,"O=C(/C=C/c1cccnc1)NCCCCCCCCN(CCCN1CCOCC1)C(=O)c1ccccc1 [Compound 1074, (E)-N-(3-morpholinopropyl)-N-(8-(3-(pyridin-3-yl)acrylamido)octyl)benzamide]",0.6
5,"N#C/N=C(\NCCCCCCNOCC1CCCCC1)Nc1ccncc1 [Compound 1110, 2-cyano-1-(8-(cyclohexylmethoxyamino)hexyl)-3-(pyridin-4-yl)guanidine]",0.015
